From the NIST ThermoML archive (doi:10.1016/j.jct.2015.05.006)

Tests used:
[1] = xn = mol fraction of the nth substance listed; settings: Liquid, Vibrating tube method, x1 = 1
[2] = relative permittivity at various frequencies (dimensionless); xn = mol fraction of the nth substance listed; settings: Liquid, Frequency=1 MHz, Parallel plate capacitor, x1 = 1
[3] = 101.33 kPa, Liquid, Vibrating tube method
[4] = relative permittivity at various frequencies (dimensionless); settings: Liquid, Frequency=1 MHz, Parallel plate capacitor

C1CCCCC1 [cyclohexane] + COCCOC
96.6 kPa
Settings | mass density, 288.15 K [kg/m3] | mass density, 298.15 K [kg/m3] | mass density, 308.15 K [kg/m3] | relative permittivity, 288.15 K | relative permittivity, 298.15 K | relative permittivity, 308.15 K
[1] | 783.29 | 773.86 | 764.38 | – | – | –
[2] | – | – | – | 2.04 | 2.03 | 2.02

CCCCCC [hexane]
[3]
Settings | mass density [kg/m3]
288.15 K | 664.13
298.15 K | 655.14
308.15 K | 646.1

[4], 95.2 kPa
Settings | relative permittivity
288.15 K | 1.91
298.15 K | 1.89
308.15 K | 1.88

CCCCCC [hexane] + COCCOC
95.2 kPa
Settings | mass density, 288.15 K [kg/m3] | mass density, 298.15 K [kg/m3] | mass density, 308.15 K [kg/m3] | relative permittivity, 288.15 K | relative permittivity, 298.15 K | relative permittivity, 308.15 K
[1] | 664.13 | 655.14 | 646.1 | – | – | –
[2] | – | – | – | 1.91 | 1.89 | 1.88

CCCCCCCC [octane] + COCCOC
97.1 kPa
Settings | mass density, 288.15 K [kg/m3] | mass density, 298.15 K [kg/m3] | mass density, 308.15 K [kg/m3] | relative permittivity, 288.15 K | relative permittivity, 298.15 K | relative permittivity, 308.15 K
[1] | 706.6 | 698.58 | 690.48 | – | – | –
[2] | – | – | – | 1.97 | 1.96 | 1.94

CCCCCCCCCCCC [dodecane] + COCCOC
97 kPa
Settings | mass density, 288.15 K [kg/m3] | mass density, 298.15 K [kg/m3] | mass density, 308.15 K [kg/m3] | relative permittivity, 288.15 K | relative permittivity, 298.15 K | relative permittivity, 308.15 K
[1] | 752.44 | 745.29 | 737.93 | – | – | –
[2] | – | – | – | 2.04 | 2.02 | 2.01

C1CCCCC1 [cyclohexane]
[3]
Settings | mass density [kg/m3]
288.15 K | 783.29
298.15 K | 773.86
308.15 K | 764.38

[4], 96.6 kPa
Settings | relative permittivity
288.15 K | 2.04
298.15 K | 2.03
308.15 K | 2.02

CCCCCCCC [octane]
[3]
Settings | mass density [kg/m3]
288.15 K | 706.6
298.15 K | 698.58
308.15 K | 690.48

[4], 97.1 kPa
Settings | relative permittivity
288.15 K | 1.97
298.15 K | 1.96
308.15 K | 1.94

COCCOC [1,2-dimethoxyethane]
[3]
Settings | mass density [kg/m3]
288.15 K | 872.06
298.15 K | 861.17
308.15 K | 850.13

[4], 96.5 kPa
Settings | relative permittivity
288.15 K | 7.41
298.15 K | 7.07
308.15 K | 6.75

CCCCCCCCCCCC [dodecane]
[3]
Settings | mass density [kg/m3]
288.15 K | 752.44
298.15 K | 745.29
308.15 K | 737.93

[4], 97 kPa
Settings | relative permittivity
288.15 K | 2.04
298.15 K | 2.02
308.15 K | 2.01
